Usually IC50 stands for the point on the concentration scale where inhibition reaches its midpoint. A low value points to greater potency in that assay.

Data on 2 molecules can be found in patent US9408850B2, “Substituted indazole derivatives active as kinase inhibitors” (NERVIANO MEDICAL SCIENCES S.R.L., priority 2011, dated 2016).

The subject of test [1] is MV-4-11 cells, bearing a FLT3-ITD mutation. The test is described as follows: In vitro cell proliferation assay (CellTiter-Glo), MV-4-11. The test is classed as cell-based. To be noted: Homo sapiens, MV4-11, MV-4-11, 72 h. The procedure:
(§1) The human acute leukemia MOLM-13 AND MV-4-11 cells, bearing a FLT3-ITD mutation, were seeded (5000 cells/well) in white 384 well-plates in complete medium (RPMI 1640 plus 10% Fetal bovine serum) and treated with compounds dissolved in 0.1% DMSO, 24 h after seeding. The cells were incubated at 37° C. and 5% CO2 and after 72 h the plates were processed using CellTiter-Glo assay (Promega) following the manufacturer's instruction.
(§2) CellTiter-Glo is a homogenous method based on the quantification of the ATP present, an indicator of metabolitically active cells. ATP was quantified using a system based on luciferase and D-luciferin resultant into light generation. The luminescent signal was proportional to the number of cells present in culture.
(§3) Briefly, 25 microL/well reagent solution were added to each well and, after 5 minutes shaking, microplates were read by Envision (PerkinElmer) luminometer. Inhibitory activity was evaluated comparing treated versus control data using Symyx Assay Explorer (Symyx Technologies Inc.) program. IC50 was calculated using sigmoidal interpolation curve.

Test [2] has as its system MOLM-13 cells, bearing a FLT3-ITD mutation. The test is described as follows: In vitro cell proliferation assay (CellTiter-Glo), MOLM-13. It is filed as cell-based. To be noted: Homo sapiens, MOLM-13, 72 h. The procedure: as §1, §2, §3
Background: In ATP-based viability assays light output follows the ATP content of the culture.

The target in test [3] is KIT cytoplasmic domain (GST fused protein) (Homo sapiens (Human), UniProt P10721). The test is described as follows: Biochemical assay for inhibitors of KIT kinase activity. The conditions noted are these: 4 nM pre activated enzyme, 4.4 microM ATP, 60 minutes at r.t. Here is the method: KIT cytoplasmic domain (aa 544-976end of the 976 aminoacid long full length sequence, accession number P10721 of UniProtKB/Swiss-Prot database) was cloned into pVL vector for expression in insect cells through the baculovirus system. The GST-KIT cytoplasmic domain has been expressed in Sf21 cells infected for 66 hrs at 27° C. The recombinant protein has been purified by affinity on GSH-sepharose and eluted with glutathione. […] General Principle-A specific peptidic substrate was trans-phosphorylated by the kinase in the presence of ATP traced with 33Pγ-ATP. At the end of the phosphorylation reaction, the not reacted ATP, cold and radioactive, was captured by an excess of dowex ion exchange resin that eventually settled by gravity to the bottom of the reaction plate. The supernatant was subsequently withdrawn and transferred into a counting plate that was then evaluated by β-counting. • ii. Dowex resin preparation-500 g of wet resin (SIGMA, custom prepared resin DOWEX 1×8 200-400 mesh, 2.5 Kg) were weighed out and diluted to 2 L in 150 mM sodium formate, pH 3.00. The resin was allowed to settle down overnight and then the supernatant was discarded. After three washes as above over a couple of days, the resin was allowed to settle and two volumes (with respect to the resin volume) were added of 150 mM sodium formate buffer. Biochemical Assay for Inhibitors of FLT3 Kinase Activity • i. Enzyme-The assay was performed using FLT3 cytoplasmic domain product and purified in house as GST fused protein. […] The peptide was purchased from American Peptide Company (Sunnyvale, Calif.). Biochemical Assay for Inhibitors of KIT Kinase Activity • i. Enzyme-The assay has been performed using KIT cytoplasmic domain product and purified in house as GST fused protein. […] NO: 2). The peptide was purchased from American Peptide Company (Sunnyvale, Calif.). Compound Testing • i. […] An automated station for serial dilutions (Biomek FX, Beckman) was used for producing 1:3 dilutions in 100% DMSO, from line A1 to A10, and for all the compounds in the column. […] The following dispensation into the plates plus 3 cycles of mixing, done by the robot itself, started the kinase reaction. At this point, the correct concentrations were restored for all the reagents. The robot incubated the plates for 60 minutes at r.t., and then stopped the reaction by pipetting 60 microL of dowex resin suspension into the reaction mix. In order to avoid tip clogging, wide bore tips were used to dispense the resin suspension. Three cycles of mixing were done immediately after the addition of the resin. Another mixing cycle was performed after all the plates were stopped, this time using normal tips: the plates were then allowed to rest for about one hour in order to allow resin sedimentation. […] Data Fitting-Data were analyzed by an internally customized version of the SW package “Assay Explorer” that provided sigmoidal fitting of the ten-dilutions curves for IC50 determination in the secondary assays/hit confirmation routines. Cell-Based Assays for Inhibitors of FLT3 Kinase Activity In vitro Cell Proliferation Assay for Inhibitors of FLT3 Kinase Activity

Test [4] addresses FLT3 cytoplasmic domain (GST fused protein) (Homo sapiens (Human), UniProt P36888). In words: Biochemical assay for inhibitors of FLT3 kinase activity. The conditions noted are these: 2 nM pre activated enzyme, 254 microM ATP, 60 minutes at r.t. The procedure:
FLT3 cytoplasmic domain (aa 564-993end of the 993 aminoacid long full length sequence, accession number P36888 of UniProtKB/Swiss-Prot. database) was amplified by PCR starting from a testis cDNA library and then cloned into pVL vector for expression in insect cells through the baculovirus system. The GST-FLT3 cytoplasmic domain has been expressed in Sf21 cells infected for 72 hours at 27° C. The recombinant protein has been purified by affinity on GSH-sepharose and eluted with glutathione. A further purification step has been performed on heparine sepharose. […] General Principle-A specific peptidic substrate was trans-phosphorylated by the kinase in the presence of ATP traced with 33Pγ-ATP. At the end of the phosphorylation reaction, the not reacted ATP, cold and radioactive, was captured by an excess of dowex ion exchange resin that eventually settled by gravity to the bottom of the reaction plate. The supernatant was subsequently withdrawn and transferred into a counting plate that was then evaluated by β-counting. • ii. Dowex resin preparation-500 g of wet resin (SIGMA, custom prepared resin DOWEX 1×8 200-400 mesh, 2.5 Kg) were weighed out and diluted to 2 L in 150 mM sodium formate, pH 3.00. The resin was allowed to settle down overnight and then the supernatant was discarded. After three washes as above over a couple of days, the resin was allowed to settle and two volumes (with respect to the resin volume) were added of 150 mM sodium formate buffer. Biochemical Assay for Inhibitors of FLT3 Kinase Activity • i. Enzyme-The assay was performed using FLT3 cytoplasmic domain product and purified in house as GST fused protein. […] NO: 1). The peptide was purchased from American Peptide Company (Sunnyvale, Calif.). Biochemical Assay for Inhibitors of KIT Kinase Activity • i. Enzyme-The assay has been performed using KIT cytoplasmic domain product and purified in house as GST fused protein. […] NO: 2). The peptide was purchased from American Peptide Company (Sunnyvale, Calif.). Compound Testing • i. […] An automated station for serial dilutions (Biomek FX, Beckman) was used for producing 1:3 dilutions in 100% DMSO, from line A1 to A10, and for all the compounds in the column. […] The following dispensation into the plates plus 3 cycles of mixing, done by the robot itself, started the kinase reaction. At this point, the correct concentrations were restored for all the reagents. The robot incubated the plates for 60 minutes at r.t., and then stopped the reaction by pipetting 60 microL of dowex resin suspension into the reaction mix. In order to avoid tip clogging, wide bore tips were used to dispense the resin suspension. Three cycles of mixing were done immediately after the addition of the resin. Another mixing cycle was performed after all the plates were stopped, this time using normal tips: the plates were then allowed to rest for about one hour in order to allow resin sedimentation. […] Data Fitting-Data were analyzed by an internally customized version of the SW package “Assay Explorer” that provided sigmoidal fitting of the ten-dilutions curves for IC50 determination in the secondary assays/hit confirmation routines. Cell-Based Assays for Inhibitors of FLT3 Kinase Activity In vitro Cell Proliferation Assay for Inhibitors of FLT3 Kinase Activity

FLT3 cytoplasmic domain (GST fused protein), sequence (P36888 564-993): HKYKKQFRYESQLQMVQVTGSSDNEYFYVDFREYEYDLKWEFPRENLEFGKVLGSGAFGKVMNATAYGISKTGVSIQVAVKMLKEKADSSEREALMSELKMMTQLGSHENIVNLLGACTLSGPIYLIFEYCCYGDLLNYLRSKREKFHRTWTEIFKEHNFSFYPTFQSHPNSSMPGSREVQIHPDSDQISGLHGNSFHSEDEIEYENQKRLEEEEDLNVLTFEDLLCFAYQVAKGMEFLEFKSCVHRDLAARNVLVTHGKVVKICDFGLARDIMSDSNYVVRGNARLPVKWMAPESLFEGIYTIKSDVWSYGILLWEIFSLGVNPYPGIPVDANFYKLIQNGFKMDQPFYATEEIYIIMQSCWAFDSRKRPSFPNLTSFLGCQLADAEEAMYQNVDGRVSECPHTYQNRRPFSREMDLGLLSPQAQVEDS
KIT cytoplasmic domain (GST fused protein), sequence (P10721 544-976): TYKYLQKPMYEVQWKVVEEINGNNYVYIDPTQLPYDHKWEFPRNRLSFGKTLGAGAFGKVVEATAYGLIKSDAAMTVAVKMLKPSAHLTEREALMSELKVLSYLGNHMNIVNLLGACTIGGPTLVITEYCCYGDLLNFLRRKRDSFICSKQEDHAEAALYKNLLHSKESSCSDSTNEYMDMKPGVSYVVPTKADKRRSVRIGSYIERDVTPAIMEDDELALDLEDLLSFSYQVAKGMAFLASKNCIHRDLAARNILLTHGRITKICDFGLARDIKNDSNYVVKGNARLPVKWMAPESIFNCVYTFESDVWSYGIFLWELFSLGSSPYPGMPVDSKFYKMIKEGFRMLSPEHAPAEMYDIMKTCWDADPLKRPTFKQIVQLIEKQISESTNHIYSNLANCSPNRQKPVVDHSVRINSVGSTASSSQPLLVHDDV

Take `CN1CCN(c2ccc(C(=O)Nc3n[nH]c4cc(OCCOCc5ccccc5F)ccc34)cc2)CC1` [Cpd. 30, N-{6-[2-(2-Fluoro-benzyloxy)-ethoxy]-1H-indazol-3-yl}-4-(4-methyl-piperazin-1-yl)-benzamide]: the IC50 in test [1] is less than 0.05 µM; in test [2], less than 0.05 µM; in test [3] it was 1.41 µM; in test [4], 0.166 µM.

On to `O=C(Nc1n[nH]c2cc(OCCOCc3ccccc3)ccc12)c1ccc(NC2CCOCC2)cc1` [Cpd. 26, N-[6-(2-Benzyloxy-ethoxy)-1H-indazol-3-yl]-4-(tetrahydro-pyran-4-ylamino)-benzamide], for which the IC50 in test [1] is less than 0.05 µM; in test [2], less than 0.05 µM; in test [3] it was 0.124 µM; in test [4] it was 0.09 µM.
